Assay results as given in patent US10723709B2, “Protease inhibitors” (MEDIVIR AB, priority 2008, dated 2020).

What was measured:
[1] = In vivo mouse PK, oral administration (FIG. 1); design: species or system male C57Bl mice; conditions: mice, orally administered 60 μmol/kg in 1% Methocel A4C vehicle; compared with Example 2 of WO2008 007107
Excerpt: FIG. 1 depicts plasma concentration against time for male C57Bl mice orally administered a compound of the invention or a compound of the prior art.
Various embodiments of the invention will now be described by way of illustration only with reference to the following Examples and FIG. 1 which depicts plasma concentration against time for male C57Bl mice orally administered a compound of the invention or a compound of the prior art.

[2] = reference markers of the permeability assay; cited from earlier work

Protocol for Caco-2 cells: This experiment measures transport of inhibitors through the cells of the human gastroenteric canal. The assay uses the well known Caco-2 cells with a passage number between 40 and 60.
Apical to Basolateral Transport
The basolateral and the apical wells will contain 1.5 mL and 0.4 mL transport buffer (TB), respectively, and the standard concentration of the tested substances is 10 μM. Furthermore all test solutions and buffers will contain 1% DMSO. Prior to the experiment the transport plates are pre-coated with culture medium containing 10% serum for 30 minutes to avoid nonspecific binding to plastic material. After 21 to 28 days in culture on filter supports the cells are ready for permeability experiments. […]
0.5 mL transport buffer (HBSS, 25 mM MES, pH 6.5) is added to the inserts and the cell monolayers equilibrated in the transport buffer system for 30 minutes at 37° C. in a polymix shaker. After being equilibrated to the buffer system the Transepithelial electrical resistance value (TEER) is measured in each well by an EVOM chop stick instrument. […]
300 μL will be taken from the basolateral (receiver) wells at each scheduled time point and the post value of TEER is measured at the end the experiment. […]
Determination of the cumulative fraction absorbed, FAcum, versus time. FAcum is calculated from: […]
The determination of permeability coefficients (Papp, cm/s) are calculated from: […]

C#C[C@@H]1CN(C(=O)[C@H](CC(C)C)NC(=O)c2ccc(-c3nc(N4CCN(C)CC4)sc3F)cc2)[C@@H]2C(=O)CO[C@H]12 [Example 2, N-[1-6-(ethynyl-3-oxo-hexahydro-furo[3,2-b]pyrrole-4-carbonyl)-3-methyl-butyl]-4-[5-fluoro-2-(4-methyl-piperazin-1-yl)thiazol-4-yl]-benzamide]
in vivo exposure (whether measured as Cmax or AUC) [1]: very much greater

N[C@@H](Cc1ccccc1)C(=O)O [L-Phenylalanine]
% absorption in man [2]: 100%

OC[C@@H](O)[C@@H](O)[C@H](O)[C@H](O)CO [Mannitol]
% absorption in man [2]: 16%

CN(Cc1cnc2nc(N)nc(N)c2n1)c1ccc(C(=O)N[C@@H](CCC(=O)O)C(=O)O)cc1 [Methotrexate]
% absorption in man [2]: 20%

N—((S)-1-((3aS, 6R, 6aS)-6-methoxy-oxodihydro-2H-furo[3,2-b]pyrrol-4(5H, 6H, 6aH)-yl)-4-methyl-oxopentan-2-yl)-4-(2-(4-methylpiperazine-1-yl)thiazol-4-yl)benzamide
papp value (Caco-2 cells): 9e-07 cm/s
